Data published in ChEMBL document CHEMBL2311401, “Molecular determinants of a selective matrix metalloprotease-12 inhibitor: insights from crystallography and thermodynamic studies” (J Med Chem, 2013).
Active and inactive are the calls of the source. The calls are words filed in the database; no cut-off is given here.

Experiments:
[1] = target: T1, Macrophage metalloelastase (Homo sapiens, UniProt P39900); assay: Binding affinity to human MMP12 catalytic domain (98 to 266) by isothermal titration calorimetry
Target sequence in this assay (P39900 whole entry, the tested form may be a part): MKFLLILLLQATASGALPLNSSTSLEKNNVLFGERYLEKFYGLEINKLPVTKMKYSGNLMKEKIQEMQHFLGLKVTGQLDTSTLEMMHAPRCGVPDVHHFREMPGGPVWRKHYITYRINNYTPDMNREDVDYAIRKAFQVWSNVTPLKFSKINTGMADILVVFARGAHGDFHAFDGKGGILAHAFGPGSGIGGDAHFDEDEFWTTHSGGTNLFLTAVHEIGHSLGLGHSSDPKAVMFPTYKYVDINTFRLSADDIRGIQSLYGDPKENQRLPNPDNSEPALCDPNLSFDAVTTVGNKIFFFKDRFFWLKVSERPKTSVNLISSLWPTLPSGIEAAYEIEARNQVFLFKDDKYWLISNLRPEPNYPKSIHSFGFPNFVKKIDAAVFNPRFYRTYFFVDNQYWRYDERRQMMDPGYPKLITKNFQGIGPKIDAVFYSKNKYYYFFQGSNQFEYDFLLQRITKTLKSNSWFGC

[2] = target: Stromelysin-1 (Homo sapiens) (UniProt P08254); assay: Inhibition of human MMP3 using Mca-Pro-Leu-Gly-Leu-Dpa-Ala-Arg-NH2 as substrate by spectrophotometry
[3] = target: Matrix metalloproteinase-9 (Homo sapiens) (UniProt P14780); assay: Inhibition of human MMP9 using Mca-Pro-Leu-Gly-Leu-Dpa-Ala-Arg-NH2 as substrate by spectrophotometry
[4] = target: Stromelysin-2 (Homo sapiens) (UniProt P09238); assay: Inhibition of human MMP10 using Mca-Pro-Leu-Gly-Leu-Dpa-Ala-Arg-NH2 as substrate by spectrophotometry
[5] = target: 72 kDa type IV collagenase (Homo sapiens) (UniProt P08253); assay: Inhibition of human MMP2 using Mca-Pro-Leu-Gly-Leu-Dpa-Ala-Arg-NH2 as substrate by spectrophotometry
[6] = target: Collagenase 3 (Homo sapiens) (UniProt P45452); assay: Inhibition of human MMP13 prodomain (20 to 272) using Mca-Pro-Leu-Gly-Leu-Dpa-Ala-Arg-NH2 as substrate by spectrophotometry
[7] = target: Neutrophil collagenase (Homo sapiens) (UniProt P22894); assay: Inhibition of human MMP8 catalytic domain (21 to 261) using Mca-Pro-Leu-Gly-Leu-Dpa-Ala-Arg-NH2 as substrate by spectrophotometry
[8] = target: Matrix metalloproteinase-14 (Homo sapiens) (UniProt P50281); assay: Inhibition of human MMP14 using Mca-Pro-Leu-Gly-Leu-Dpa-Ala-Arg-NH2 as substrate by spectrophotometry
[9] = target: T1, Macrophage metalloelastase; assay: Inhibition of human MMP12 catalytic domain (98 to 266) at pH 6 to 7 by isothermal titration calorimetry
Target sequence in this assay (P39900 106-470 limits assumed): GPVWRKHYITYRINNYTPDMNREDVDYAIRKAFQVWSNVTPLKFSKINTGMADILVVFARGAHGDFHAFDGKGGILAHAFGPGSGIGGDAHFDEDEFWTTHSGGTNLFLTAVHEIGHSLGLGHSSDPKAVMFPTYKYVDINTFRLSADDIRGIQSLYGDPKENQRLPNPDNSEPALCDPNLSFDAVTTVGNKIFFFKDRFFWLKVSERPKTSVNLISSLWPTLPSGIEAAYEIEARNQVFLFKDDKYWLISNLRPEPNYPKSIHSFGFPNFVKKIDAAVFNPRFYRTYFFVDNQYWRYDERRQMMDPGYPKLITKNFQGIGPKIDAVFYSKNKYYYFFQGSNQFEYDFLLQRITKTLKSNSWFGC

[10] = target: T1, Macrophage metalloelastase; assay: Inhibition of human MMP12 catalytic domain (98 to 266) at pH 6.8 by isothermal titration calorimetry
Target sequence in this assay (P39900 whole entry, the tested form may be a part): as the sequence (P39900 whole entry, the tested form may be a part) above

Sequence of Stromelysin-2 (Homo sapiens) (P09238 99-476 limits assumed): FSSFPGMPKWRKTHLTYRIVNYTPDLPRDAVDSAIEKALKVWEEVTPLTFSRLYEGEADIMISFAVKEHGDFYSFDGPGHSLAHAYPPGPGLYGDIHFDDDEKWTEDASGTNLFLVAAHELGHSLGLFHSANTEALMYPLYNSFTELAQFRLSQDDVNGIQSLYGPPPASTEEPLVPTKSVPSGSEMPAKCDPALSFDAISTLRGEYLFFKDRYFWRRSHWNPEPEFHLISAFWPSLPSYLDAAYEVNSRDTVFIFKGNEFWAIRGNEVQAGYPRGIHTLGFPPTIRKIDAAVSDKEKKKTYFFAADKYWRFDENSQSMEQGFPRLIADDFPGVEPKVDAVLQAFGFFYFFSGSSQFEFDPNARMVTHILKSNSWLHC
Sequence of Stromelysin-1 (Homo sapiens) (P08254 100-477 limits assumed): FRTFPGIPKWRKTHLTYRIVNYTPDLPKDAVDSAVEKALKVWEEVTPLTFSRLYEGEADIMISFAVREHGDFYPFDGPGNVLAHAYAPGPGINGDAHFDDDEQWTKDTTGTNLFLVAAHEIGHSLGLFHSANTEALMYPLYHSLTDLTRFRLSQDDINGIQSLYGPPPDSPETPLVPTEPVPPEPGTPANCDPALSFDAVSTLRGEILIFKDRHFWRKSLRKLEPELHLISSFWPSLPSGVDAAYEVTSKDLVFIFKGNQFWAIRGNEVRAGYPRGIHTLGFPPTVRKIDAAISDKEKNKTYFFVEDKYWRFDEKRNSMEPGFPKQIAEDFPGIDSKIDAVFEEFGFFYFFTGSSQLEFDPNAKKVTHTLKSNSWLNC
Sequence of Matrix metalloproteinase-9 (Homo sapiens) (P14780 whole entry): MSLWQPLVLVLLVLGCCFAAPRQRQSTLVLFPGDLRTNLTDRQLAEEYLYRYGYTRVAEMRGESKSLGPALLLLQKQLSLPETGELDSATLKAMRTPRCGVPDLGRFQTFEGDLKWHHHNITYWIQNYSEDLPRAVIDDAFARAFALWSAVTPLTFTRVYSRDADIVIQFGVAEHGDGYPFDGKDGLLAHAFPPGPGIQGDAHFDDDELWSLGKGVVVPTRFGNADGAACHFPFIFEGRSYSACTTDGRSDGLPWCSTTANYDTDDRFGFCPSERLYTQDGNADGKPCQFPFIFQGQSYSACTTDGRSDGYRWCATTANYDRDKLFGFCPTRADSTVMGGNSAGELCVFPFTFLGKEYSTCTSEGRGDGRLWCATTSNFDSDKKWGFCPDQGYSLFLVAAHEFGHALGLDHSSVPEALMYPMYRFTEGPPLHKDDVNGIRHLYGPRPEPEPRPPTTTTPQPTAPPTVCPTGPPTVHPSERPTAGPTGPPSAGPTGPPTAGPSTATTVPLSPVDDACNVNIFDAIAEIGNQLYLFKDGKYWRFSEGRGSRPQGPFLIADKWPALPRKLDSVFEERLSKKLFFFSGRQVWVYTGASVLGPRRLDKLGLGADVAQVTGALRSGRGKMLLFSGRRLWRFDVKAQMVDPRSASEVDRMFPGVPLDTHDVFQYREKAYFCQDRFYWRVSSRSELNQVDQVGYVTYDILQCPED
Sequence of Neutrophil collagenase (Homo sapiens) (P22894 101-467 limits assumed): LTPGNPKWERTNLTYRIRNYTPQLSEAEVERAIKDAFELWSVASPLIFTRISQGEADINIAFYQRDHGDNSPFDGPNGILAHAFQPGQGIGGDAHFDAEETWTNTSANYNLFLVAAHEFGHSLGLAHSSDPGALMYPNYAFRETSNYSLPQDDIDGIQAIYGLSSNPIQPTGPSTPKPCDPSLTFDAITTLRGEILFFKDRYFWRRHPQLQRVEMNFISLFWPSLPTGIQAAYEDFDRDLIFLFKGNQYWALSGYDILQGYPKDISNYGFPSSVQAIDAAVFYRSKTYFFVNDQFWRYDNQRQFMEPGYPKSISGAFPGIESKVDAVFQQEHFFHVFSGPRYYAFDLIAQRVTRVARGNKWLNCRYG
Sequence of 72 kDa type IV collagenase (Homo sapiens) (P08253 110-660 limits assumed): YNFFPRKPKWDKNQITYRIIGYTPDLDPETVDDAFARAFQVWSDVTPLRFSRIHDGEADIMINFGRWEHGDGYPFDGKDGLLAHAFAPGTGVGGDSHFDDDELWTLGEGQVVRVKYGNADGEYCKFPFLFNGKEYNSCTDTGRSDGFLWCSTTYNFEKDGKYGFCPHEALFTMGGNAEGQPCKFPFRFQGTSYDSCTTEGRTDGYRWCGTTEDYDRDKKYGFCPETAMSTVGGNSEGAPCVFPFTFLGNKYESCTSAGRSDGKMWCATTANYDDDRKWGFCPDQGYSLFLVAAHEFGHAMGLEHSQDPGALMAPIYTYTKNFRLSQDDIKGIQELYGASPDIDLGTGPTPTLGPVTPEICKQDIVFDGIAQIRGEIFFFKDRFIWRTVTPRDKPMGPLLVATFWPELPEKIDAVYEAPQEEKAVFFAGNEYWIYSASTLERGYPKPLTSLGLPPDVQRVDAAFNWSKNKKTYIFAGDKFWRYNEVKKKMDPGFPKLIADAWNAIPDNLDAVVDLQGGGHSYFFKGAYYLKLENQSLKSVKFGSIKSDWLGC

Ki [1] [nM]	inhibition [2]	inhibition [3]	inhibition [4]	inhibition [5]	inhibition [6]	inhibition [7]	inhibition [8]	inhibition [9]	Structure (SMILES)	INH [9] [nM]	Ki [10] [nM]
0.28	inactive	Active	Active	Active	inactive	inactive	inactive		C[C@H](NC(=O)[C@H](C)NC(=O)[C@H](Cc1cc(-c2ccc(-c3cccc(Cl)c3)cc2)no1)CP(=O)(O)c1ccc(Br)cc1)C(N)=O		
14.7	Active		Active					Active	C[C@H](NC(=O)[C@H](C)NC(=O)[C@H](Cc1cc(-c2ccccc2)no1)CP(=O)(O)c1ccc(Br)cc1)C(N)=O		
15.5	Active	Active	Active	Active	Active	Active	Active		NC(=O)[C@H](CCC(=O)O)NC(=O)[C@H](CCC(=O)O)NC(=O)[C@H](Cc1cc(-c2ccccc2)no1)CP(=O)(O)c1ccc(Br)cc1		

Structure (SMILES)	Ki [1] [nM]	inhibition [2]	inhibition [3]	inhibition [4]	inhibition [5]	inhibition [6]	inhibition [7]	inhibition [8]	inhibition [9]	INH [9] [nM]	Ki [10] [nM]
NC(=O)[C@H](CCC(=O)O)NC(=O)[C@H](CCC(=O)O)NC(=O)[C@H](Cc1cc(-c2ccc(-c3cccc(Cl)c3)cc2)no1)CP(=O)(O)c1ccc(Br)cc1		Active		Active						0.044	0.24
